Results as given in US9580487B2, “Method of treating stomach or bowel-related disorders by administering glucagon-like-peptide-2 (GLP-2) analogues” (Zealand Pharma A/S, priority 2005, dated 2017).
Entries after “also recorded” stand apart in the source; their conditions may differ. No end group written: not given here.

Tests used:
Type in all cases: in vivo
[1] = test system: Sprague-Dawley rats treated with 5-Fluorouracil (5-FU); assay: 5-FU-induced small intestinal atrophy and diarrhea in SD rats
Procedure: FIG. 10 is a set of graphs showing effects of compound 1846 (SEQ ID NO:34) (16, 80 and 400 nmol/kg/d; s.c., n=6/dose group) in male Spague-Dawley rats treated with the cytostatic drug 5-Fluorouracil (5-FU). Compound 1846 (SEQ ID NO:34) was administered for 3 days prior to and for 4 days together with 5-FU (75 mg/kg, i.p. daily). Results were compared with responses in control animals treated with vehicle (saline) or 5-FU alone. Saline and 5-FU controls are also shown. […] Values are means±SEM. * P<0.05, relative to 5-FU alone.
FIG. 11 is a set of graphs showing the therapeutic effect of compound 1846 (SEQ ID NO:34) on diarrhea induced by treatment with the cytostatic drug 5-fluorouracil (5-FU). Rats were treated with 5-FU for 4 days with 75 mg/kg once daily (days 1-4); (n=40 rats). Half of the animals received additional treatment with compound 1846 (SEQ ID NO:34) (400 nmol/kg s.c. once daily) during the last 3 days prior to (days −3 to −1) and during 4 days of 5-FU treatment (days 0 to 3). Rats were observed twice daily (morning and evening) to determine whether the animal had diarrhea and the severity of the diarrhea was scored according to this scale: (0) no diarrhea; (1) mild—fecal staining around the anus; (2) moderate—fecal staining on the hind limbs and tail; and (3) severe—fecal staining on the front limbs and abdomen. On day 5, about 70% of Sprague Dawley rats that received 5-FU alone had developed diarrhea (FIG. 11A) while only 30% of the rats that were co-treated with compound 1846 (SEQ ID NO:34) developed diarrhea (FIG. 11B).
The effect of the clinical candidate, 1846 (SEQ ID NO:34), on 5-FU-induced small intestinal atrophy and diarrhea was investigated in SD rats. We have previously shown that i.p. administration of 75 mg/kg 5-FU once daily for four days induces significant small intestinal atrophy and diarrhea in SD rats. 1846 (SEQ ID NO:34) (16, 80 and 400 nmol/kg/d; […]) was administered twice daily for three days prior to 5-FU and for four days together with 5-FU administration. 5-FU controls and PBS controls were included in the study. […]

[2] = test system: Sprague Dawley rats; assay: Crypt-villus length and muscularis thickness in the small intestine of SD rats
Procedure: FIG. 12 is a set of graphs showing the effect of compound 1846 (SEQ ID NO:34) on epithelial crypt-villus height (FIG. 12A) and muscular thickness (FIG. 12B) in the jejunum (i.e., mid section of the small intestine). Sprague Dawley rats were treated intravenously with compound 1846 (SEQ ID NO:34) (0.62, 3.41 or 6.2 mg/kg once daily) for 5 days (n=6/dose group). Then the animals were sacrificed and small intestinal biopsies (1 cm) were collected 25 cm distal from the pyloric sphincter. The biopsies were fixed, embedded in paraffin, sectioned and stained with haematoxylin and eosin. Stained sections were examined under a microscope and crypt depth, villus height, crypt-villus length and muscularis thickness measured. […] Values are means±SEM. * P<0.05, relative to vehicle controls (0 mg/kg/d).
The effect of the clinical candidate, 1846 (SEQ ID NO:34), on crypt-villus length and muscularis thickness in the small intestine of SD rats was investigated. 1846 (SEQ ID NO:34) (0.62, 3.41 or 6.2 mg/kg/day, n=6 rats/dose group) was administered as an i.v. bolus, once daily for five consecutive days. Twenty-four hours after the last dose had been administered the rats were sacrificed and a 1 cm biopsy was excised from the jejunum (30 cm distal from the gastric duodenal junction) and from the ileum (30 cm proximal from the ileocaecal junction) for histological processing.

[3] = test system: TNF-α; assay: Small intestinal tissue content of TNF-α (ELISA) in rats with indomethacin-induced inflammation; conditions: for Tissue levels of TNF-α, proximal segment: indomethacin alone 97±14, control 34±7
Procedure: Male Sprague Dawley rats were treated with vehicle (saline; group 1) or indomethacin (7 mg/kg s.c., once daily for two days; groups 2-7). […] On day 3, rats were sacrificed and upon necropsy, the small intestine was divided into three segments of equal length corresponding to 1) duodenum and proximal jejunum, 2) mid and distal jejunum and 3) ileum. Samples were immediately snap-frozen in liquid N2 and stored at −80° C. until analysis. Homogenization and extraction of cellular protein from small intestinal segments was performed according to the following procedure: Tissue segments were weighed and added a volume of 1.5 ml per gram tissue ice-cold (4° C.) extraction buffer (10 mM Tris-HCl (Sigma) and 1 mM EDTA (J. T. Baker), (pH 7.6) with 0.05% sodium azide (Fluka), 1% Tween-80 (Fluka), 2 mM phenylmethylsulfonyl fluoride (PMSF, Fluka) and 1 μg/ml of each of the protease inhibitors aprotinin, leupeptin and pepstatin A (Roche Diagnostics)). The tissue was cut into small bits with a pair of scissors and homogenized three times for 20 seconds (IKA UltraTurrax T25 homogenizer, Janke & Kunkel) at 9500 rpm with intermittent cooling on ice for 30 seconds. The homogenate was centrifuged at 20.000×g for 30 minutes at 4° C., the supernatant was collected and stored at −20° C. until analysis for TNF-α small intestinal protein extractions were analyzed for TNF-α using a commercially available ELISA kit according to the manufacturer's instructions (Rat Tumor Necrosis Factor-α UltraSensitive ELISA kit, Biosource International Inc.). The assay has a detection limit of 0.7 pg/ml. Protein extractions were analyzed for total protein content using a commercially available assay (DC protein assay, Bio-Rad Laboratories Ltd.). Small intestinal tissue levels of TNF-α were expressed relative to total protein. […] Values are means±SEM. * P<0.05 vs. indomethacin (group 2).
At sacrifice, however the small intestine was separated into three segments of equal length (proximal, mid and distal). TNF-α concentrations were measured in each of the individual segments using a commercially available ELISA kit.

Substance | Rats that developed diarrhea on day 5 ([1]; 400 nmol/kg s.c. with 5-FU 75 mg/kg, 5-FU alone about 70%) [%] | 5-FU-induced small intestinal atrophy (SI-BW, SI length) in rats ([1]; 16, 80 and 400 nmol/kg/d s.c., 3 days prior to and 4 days with 5-FU 75 mg/kg i.p. daily) | Incidence and severity of diarrhea ([1]; highest dose (400 nmol/kg), rats administered 5-FU) | Muscular thickness of the jejunum ([2]; 0.62, 3.41 or 6.2 mg/kg i.v. once daily for 5 days) | Crypt-villus length ([2]; 0.62, 3.41 or 6.2 mg/kg i.v. once daily for 5 days, jejunum (and ileum)) | Muscularis thickness in the ileum ([2]; 0.62, 3.41 or 6.2 mg/kg/day i.v. for five days) | Tissue levels of TNF-α, proximal segment ([3]; 8 nmol/kg) [pg/mg protein] | Tissue levels of TNF-α, proximal segment ([3]; 40 nmol/kg) [pg/mg protein] | Tissue levels of TNF-α, proximal segment ([3]; 200 nmol/kg) [pg/mg protein] | Small intestinal tissue levels of TNF-α (in words) ([3]; 8, 40 or 200 nmol/kg, indomethacin-treated rats) | Tissue levels of TNF-α, mid segment (in words) ([3]; 40 or 200 nmol/kg, indomethacin alone 108±9 pg/mg protein) | TNF-α levels, distal segment (in words) ([3]; indomethacin alone 75±5 pg/mg protein) | TNF-α: efficacy compared with prednisolone ([3]; vs prednisolone 10 mg/kg)
[Gly2, Glu3, Ser8,11, Leu10, Ala16,24,28]hGLP-2(1-33)-(Lys)6-NH2 (HGEGSFSSELSTILDALAARDFIAWLIATKITDKKKKKK-NH2) [Compound 1846] | 30 | prevented 5-FU-induced small intestine atrophy; also recorded: dose-dependently prevented 5-FU induced small intestinal atrophy and maintained SI-BW and SI length at levels similar to the controls | decreased the incidence and severity of diarrhea | no effect on the muscular thickness of the jejunum | dose-dependent increases in crypt-villus length; also recorded: dose-dependently increased mean crypt-villus length in the jejunum and ileum | dose-dependently increased |  |  |  |  |  |  | 
[Gly2, Glu3, Thr5, Ser8, Leu10, Ala11,16,24,28]hGLP-2(1-33)-(Lys)6-NH2 (HGEGTFSSELATILDALAARDFIAWLIATKITDKKKKKK-NH2) [Compound 1848] |  |  |  |  |  |  | 45±14 | 44±9 | 45±7 | significantly decreased small intestinal tissue levels of the proinflammatory cytokine TNF-α | significantly reduced tissue levels of TNF-α | inhibitory effect on TNF-α levels in the distal segment but the effect was less pronounced compared to the other segments | more efficacious than prednisolone in the proximal and mid segments
